Consider 58 compounds from the METLIN SMRT retention time set (Domingo-Almenara et al. 2019).

A short description of the data set: gradient 5% acetonitrile 3 min, to 50% in 2 min, to 85% in 15 min, held 3 min, 100 µL/min. The settings on record: column: Zorbax Extend-C18 2.1 x 50 mm; eluents: water / acetonitrile, 0.1% formic acid. An outline of the steps:
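Over 3 months, pure standards in mixtures of ~100 molecules were run by HPLC coupled to a quadrupole time-of-flight mass spectrometer in positive and negative ionization mode. The column was a Zorbax Extend-C18 (2.1 × 50 mm, 1.8 μm) at 100 μL/min, eluted with water and acetonitrile each holding 0.1% formic acid, with 40 μL dead and 900 μL dwell volumes. Retention time was determined from adduct peaks chosen by software and checked manually.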
`COc1cc([C@@H]2c3cc4c(cc3[C@H](O)[C@@H](CO)[C@@H]2C(=O)NC(C)C)OCO4)cc(OC)c1OC` returned an RP-LC retention time of 660 s.

On to `CC(=O)N1CCC(c2nc(-c3ccc4c(c3)ncn4CCN3CCCC3)no2)CC1`, for which the RP-LC retention time is 553 s.

Regarding `Cc1nnc(-c2c(S(=O)(=O)N3CCC(Cc4ccccc4)CC3)c(C)n(C)c2C)o1`, the RP-LC retention time is 931 s.

`Cc1ccccc1N1C(=O)CN(S(=O)(=O)c2ccccc2)CC1(C)C(=O)NCCC(C)C` (stereo not drawn): the RP-LC retention time worked out at 970 s.

As to `CCc1nc(-c2csc(S(=O)(=O)N3CCCC(C(=O)Nc4ccccc4Cl)C3)c2)no1` (stereo not drawn), the RP-LC retention time was determined as 1020 s.

As for `CC(C)CCNC(=O)N1CCCC(C)(C(=O)NCc2ccccc2)C1` (stereo not drawn), the RP-LC retention time was 834 s.

The compound `c1ccc2c(c1)CCN(Cc1nc(-c3ccc(N4CCCCCC4)nc3)no1)C2` displayed an RP-LC retention time of 816 s.

`CCCn1nc2n(c1=O)CCN(Cc1cn[nH]c1-c1ccc(C)c(C)c1)C2` returned an RP-LC retention time of 644 s.

`O=c1n(Cc2ccc3c(c2)OCO3)nc2c(S(=O)(=O)N3CCOCC3)cccn12` showed an RP-LC retention time of 736 s.

As to `Cc1cc(C)cc(C(=O)N2CCC(n3c(-c4ccco4)nc4cccnc43)C2)c1` (stereo not drawn), the RP-LC retention time came out at 825 s.

The compound `Cc1ccc(C(=O)Nc2ccc3c(c2)Sc2ncccc2C(=O)N3C(C)C)s1` displayed an RP-LC retention time of 886 s.

With `Cc1ccc(CNC(=O)N2CCN(c3ncccc3-c3nnc(C4CC4)o3)CC2)cc1`, the RP-LC retention time worked out at 780 s.

Compound `Cc1nc(SCC(=O)Nc2ccc(Cl)cc2C(F)(F)F)cc(-c2ccccn2)n1` gave an RP-LC retention time of 1080 s.

`COc1cccc(-c2nc(-c3ccc4oc(-c5ccccc5)nc4c3)no2)c1OC` gave an RP-LC retention time of 1410 s.

The compound `CCN1CCCC1CNC(=O)Cn1ncn2nc(-c3ccccc3)cc2c1=O` (stereo not drawn) gave an RP-LC retention time of 604 s.

Compound `Cc1ccc(NC(=O)Cn2nc3cc(-c4ccccc4)nc(C)n3c2=O)cc1F` yielded an RP-LC retention time of 976 s.

`CCOc1ccc(N2C(=O)Nc3ccccc3C2(O)C(=O)NCCCN2CCC(C)CC2)cc1` (stereo not drawn) displayed an RP-LC retention time of 582 s.

Turning to `Cc1ccc(C)c(NC(=O)C2CCN(S(=O)(=O)c3ccc4c(c3)CCCC(=O)N4)CC2)c1`, the RP-LC retention time was determined as 768 s.

For `CN(C)S(=O)(=O)NCc1nnnn1C1CCCCC1`, the RP-LC retention time worked out at 681 s.

In turn, `CCc1cc(=O)n(CC(=O)Nc2cccc(C)c2)c(N2CCOCC2)n1` gave an RP-LC retention time of 770 s.

The compound `COc1ccc(S(=O)(=O)N2CC=C(c3cn(C)c4ncccc34)CC2)cc1Cl` returned an RP-LC retention time of 1010 s.

As for `Cn1cc2c3c(cccc31)CN(C(=O)c1ccc(C#N)cc1)CC2`, the RP-LC retention time amounted to 884 s.

`CCc1c(C(=O)O)nnn1Cc1ccc(OC)cc1` gave an RP-LC retention time of 734 s.

Take `COc1ccccc1CNc1c(-c2nc(C(C)C)no2)cnc2nc(C)ccc12`: the RP-LC retention time is 797 s.

In turn, `Cc1nc(C)c(C(=O)NCc2c(-c3ccccc3)nc3sc(C)nn23)s1` yielded an RP-LC retention time of 737 s.

In the case of `CCOc1ccc(N2CC(c3nnc(NC(=O)CC4CCCCC4)o3)CC2=O)cc1` (stereo not drawn), the RP-LC retention time stood at 804 s.

Compound `CNC(=O)c1cc(COc2nnc(Nc3ccc(Cl)cc3)c3ccoc23)ccn1` yielded an RP-LC retention time of 749 s.

With `Cc1cc(CNC(=O)c2cnccn2)no1`, the RP-LC retention time was 577 s.

As to `O=C(NCC1CCCO1)N1CCCn2nc(-c3cccc(Cl)c3)cc2C1` (stereo not drawn), the RP-LC retention time turned out to be 792 s.

On to `Cc1[nH]c(C)c(S(=O)(=O)N2CCN(c3ccccn3)CC2)c1C(=O)N1CCCCC1`, for which the RP-LC retention time stood at 606 s.

`CCS(=O)(=O)N1CCCN(C2=NS(=O)(=O)C(c3ccc(C)c(C)c3)=C2C)CC1` displayed an RP-LC retention time of 872 s.

Regarding `Cc1ccn2cc(-c3ccc(NS(=O)(=O)c4ccc(Cl)c(Cl)c4)cc3)nc2n1`, the RP-LC retention time is 743 s.

Consider `CCCn1cc(CCNC(=O)Nc2cc(F)ccc2F)c2cccnc21`, for which the RP-LC retention time was 849 s.

Consider `CCn1c(SCC(=O)Nc2ccccc2C(F)(F)F)nc2c(c1=O)SC(C)C2` (stereo not drawn), for which the RP-LC retention time worked out at 854 s.

On to `COc1ccc(-c2csc(Nc3cccnc3)n2)cc1`, for which the RP-LC retention time was 656 s.

Consider `CCOc1ccc(NC(=O)Cn2c(=O)n(-c3ccc(C)cc3)c(=O)c3c2cc(C)n3C)cc1`, for which the RP-LC retention time was found to be 824 s.

For the compound `Cc1ccc(C)c(S(=O)(=O)N2CCC(F)(c3nc(CC(C)C)no3)CC2)c1`, the RP-LC retention time is 1270 s.

`CCN(C(=O)CN1C(=O)CCCc2cc(S(=O)(=O)N3CCCCC3)ccc21)c1ccc(OC)cc1` registered an RP-LC retention time of 961 s.

Consider `Cc1nc2cc(N3CC(C(=O)N4CCN(c5ccccc5C)CC4)CC3=O)ccc2o1` (stereo not drawn), for which the RP-LC retention time is 848 s.

`Cc1ccc(-c2nc3nc4c(c(N5CCCC5)n3n2)CCC4)cc1` gave an RP-LC retention time of 909 s.

Regarding `COc1ccc(OCc2nc(-c3ccc4c(c3)nc(C)c(=O)n4C3CCCC3)no2)cc1`, the RP-LC retention time was 1170 s.

Compound `CC(NC(=O)Cn1c(C(F)(F)F)nc2ccccc21)c1ccc2c(c1)OCCCO2` (stereo not drawn) registered an RP-LC retention time of 842 s.

For `CCC(C(=O)NCC1CCCO1)n1c2ccccc2c2cnn(C)c(=O)c21` (stereo not drawn), the RP-LC retention time came out at 768 s.

In turn, `Cc1nc(CC(=O)NC(C)c2ccccc2)sc1C(=O)NCc1ccccc1` (stereo not drawn) displayed an RP-LC retention time of 820 s.

In turn, `O=C1CC(C(=O)N2CCN(Cc3ccccc3)CC2)CN1CCc1c[nH]c2ccc(F)cc12` (stereo not drawn) displayed an RP-LC retention time of 634 s.

`COc1ccc(-c2ncc3c(n2)CCN(C(=O)c2c(F)cccc2Cl)C3)cc1` had an RP-LC retention time of 966 s.

For `O=C(c1cc2c(s1)CCC(C(=O)N1CCN(c3ccccn3)CC1)C2)N1CCCCC1` (stereo not drawn), the RP-LC retention time came out at 621 s.

In the case of `O=C(Nc1ccc(F)cc1F)c1cnc(-c2ccccc2)nc1-c1ccncc1`, the RP-LC retention time came to 874 s.

Regarding `Cc1ccc(C)c(N2CCN(c3ccnc(SCC(=O)Nc4ccccc4C)n3)CC2)c1`, the RP-LC retention time is 1010 s.

`Cc1oc2ccn(Cc3ccc(F)cc3)c(=O)c2c1C(=O)NCc1ccc(F)cc1F` returned an RP-LC retention time of 1100 s.

`COc1ccccc1N1CCN(c2nc3ccc(C)cc3cc2-c2noc(C)n2)CC1` returned an RP-LC retention time of 732 s.

`COCCC1CCN(C(=O)Cc2c(C)noc2C)CC1` showed an RP-LC retention time of 636 s.

In turn, `NS(=O)(=O)c1nn2cc(-c3ccccc3)nc2s1` showed an RP-LC retention time of 813 s.

Consider `CCOc1ccc(/C=C/c2nc3ccccc3n(C)c2=O)cc1`, for which the RP-LC retention time came out at 933 s.

`O=C(Nc1cccc(C(F)(F)F)c1)N1CCN(c2cnn3c(C4CC4)nnc3c2)CC1` displayed an RP-LC retention time of 629 s.

`O=C(c1cc2occc2c(Nc2ccc(Cl)cc2)n1)N1CCN(c2ccccn2)CC1`: the RP-LC retention time is 713 s.

The compound `CCn1c(C2CCN(S(=O)(=O)c3cccc(C)c3)C2)nc2cccnc21` (stereo not drawn) returned an RP-LC retention time of 771 s.

In the case of `Cn1cc(CC(=O)NCc2cc(F)cc(F)c2)c2cccnc21`, the RP-LC retention time amounted to 702 s.
